Experimental data published in patent US10266526B2, “Substituted 1,2,3-triazoles as SMYD inhibitors for treating cancer” (EPIZYME, INC., priority 2014, dated 2019).
Where a name gives a salt, the structure may show the parent alone.

How the values were obtained:
SMYD3 [1] = target: T1, SMYD3 (Homo sapiens (Human), UniProt Q9H7B4); experiment: SMYD3 biochemical assay (SMYD3 enzyme assay on MEKK2 protein substrate, 3H-SAM scintillation proximity assay); conditions: read-out: SMYD3 Biochem IC50
How it was run: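 Detection used scintillation proximity beads to capture ³H-methylated GST-MEKK2 after quench with 100 uM final cold SAM. The reaction was started by SAM/MEKK2 addition after a 30 min RT compound–enzyme preincubation. Enzyme was tag-free full-length human SMYD3 from E. coli, in buffer of 25 mM Tris-Cl pH 8.0, 1 mM TCEP, 0.005% BSG, 0.005% Tween 20.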

SMYD3 [2] = target: T1, SMYD3; experiment: SMYD3 cell assay (Trimethyl-MEKK2 In-Cell Western in 293T/17 cells transfected with MEKK2-flag and SMYD3); format: cell-based
From the text: Trimethyl-MEKK2-in-Cell Western Assay
MEM/Glutamax medium, Optimem Reduced Serum medium, penicillin-streptomycin, 0.05% trypsin and 1×D-PBS were purchased from Life Technologies, Grand Island, N.Y., USA. PBS-10× was purchased from Ambion, Life Technologies, Grand Island, N.Y., USA. PBS with Tween 20 (PBST (10×)) was purchased from KPL, Gaithersburg, Md., USA. Tet System FBS-approved FBS US Source was purchased from Clontech, Mountain View, Calif., USA. Odyssey blocking buffer, 800CW goat anti-rabbit IgG (H+L) antibody, 680CW Goat anti-mouse IgG (H+L) and Licor Odyssey infrared scanner were purchased from Licor Biosciences, Lincoln, Nebr., USA. Tri-methyl-Lysine [A260]-MEKK2 antibody, MEKK2 and SMYD3 plasmids were made at Epizyme. Anti-flag monoclonal mouse antibody was purchased from Sigma, St. Louis, Mo., USA. Methanol was purchased from VWR, Franklin, Mass., USA. 10% Tween 20 was purchased from KPL, Inc., Gaithersburg, Md., USA. Fugene was purchased from Promega, Madison, Wis., USA. The Biotek ELx405 was purchased from BioTek, Winooski, Vt., USA. The multidrop combi was purchased from Thermo Scientific, Waltham, Mass., USA.
Cell Treatment, in Cell Western (ICW) for Detection of Trimethyl-Lysine-MEKK2 and MEKK2.
Plasmids were prepared for delivery to cells by first mixing 1350 μL Opti-MEM with Fugene (81 μL) in a sterile Eppendorf and incubated for five minutes at room temperature (RT). […] Entire volume of Opti-MEM/Fugene mixture was then added to a microfuge tube containing DNA plasmid, mixed and then incubated ×15 minutes at RT. […] Medium was then removed, and cells were washed once with PBS in the flask. Trypsin 0.05% (3 mL) was added and cells incubated for three minutes. Room temperature MEM+10% Tet system FBS was added and cells were mixed gently, and counted using the Vi-cell. Cells were seeded at 100,000 cells/mL in 50 μL MEM/10% Tet FBS/Pen/Strep to a 384 well black/clear poly-D-lysine coated plate containing test agent diluted in DMSO. The final top concentration of test compound was 40 μM. […] Plates were incubated ×30 minutes at RT in low-airflow area, followed by incubation at 37° C. under 5% CO2 for 24 hours. Medium was aspirated from all wells of assay plates prior to fixation and permeabilization with ice cold (−20° C.) methanol (90 μL/well) for ten minutes. Plates were rinsed with PBS three times on BioTek ELx405. PBS was removed with a final aspiration, and Odyssey blocking buffer (50 μL/well) was added to each well and incubated for one hour at RT. Primary antibody solution was prepared (anti-trimethyl-MEKK2 at 1:600 dilution plus mouse anti-flag antibody at 1:10,000 dilution in diluent (Odyssey Blocking buffer+0.1% Tween 20)) and 20 μL per well was dispensed using the Multidrop Combi. Assay plates were then sealed with foil, and incubated overnight at 4° C. Plates were washed five times with PBS-Tween (1×) on Biotek ELx405 and blotted on paper towel to remove excess reagent.
First, the ratio for each well was determined by:
Each plate included fourteen control wells of DMSO only treatment (Minimum Inhibition) as well as fourteen control wells for maximum inhibition (Background). The average of the ratio values for each control type was calculated and used to determine the percent inhibition for each test well in the plate. Reference compound was serially diluted two-fold in DMSO for a total of nine test concentrations, beginning at 40 μM. Percent inhibition was calculated (below).
Non-linear regression curves were generated to calculate the IC50 and dose-response relationship using triplicate wells per concentration of compound.

[3] = Table 3A, average of n = 1 to n = 50
[4] = Table 3A, average of n = 1 to n = 50, read-out: SMYD3 cell IC50

T1 sequence (Q9H7B4 whole entry): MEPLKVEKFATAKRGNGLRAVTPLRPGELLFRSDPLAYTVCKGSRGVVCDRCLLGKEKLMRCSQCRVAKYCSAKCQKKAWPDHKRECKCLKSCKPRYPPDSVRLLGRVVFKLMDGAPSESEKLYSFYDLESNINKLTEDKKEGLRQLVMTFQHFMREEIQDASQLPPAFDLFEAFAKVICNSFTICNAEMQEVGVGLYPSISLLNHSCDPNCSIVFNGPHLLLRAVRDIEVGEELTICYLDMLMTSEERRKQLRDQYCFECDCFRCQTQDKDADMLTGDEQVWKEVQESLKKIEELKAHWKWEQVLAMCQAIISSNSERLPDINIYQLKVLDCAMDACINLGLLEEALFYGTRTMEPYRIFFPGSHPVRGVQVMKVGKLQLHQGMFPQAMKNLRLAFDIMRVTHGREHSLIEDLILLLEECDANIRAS

Row | IC50 (SMYD3 [2]; read-out: SMYD3 Cell IC50) [nM] | Compound | IC50 (SMYD3 [1]) [nM] | IC50 (SMYD3 [1]; [3]) [nM] | IC50 (SMYD3 [2]; [4]) [nM]
1 | > 40000 | CC(NC(=O)c1cc2c(cc1Cl)NC(=O)C2)C1CCN(C(=O)[C@H](C)N)CC1 (stereo partly drawn) [Cpd. No. 490, N-(1-(1-((S)-2-aminopropanoyl)piperidin-4-yl)ethyl)-6-chloro-2-oxoindoline-5-carboxamide] | 430 | – | –
2 | – | O=C1Cc2cc(C(=O)N[C@H]3C[C@H]4CC[C@@H](C3)N4S(=O)(=O)N3CCC(NCc4ccccc4)CC3)ccc2N1 [Cpd. No. 587, N-[(1R,3r,5S)-8-[4-(benzylamino)piperidine-1-sulfonyl]-8-azabicyclo[3.2.1]octan-3-yl]-2-oxo-2,3-dihydro-1H-indole-5-carboxamide] | – | 1.98 | 71
3 | – | O=C1Cc2cc(C(=O)N[C@H]3C[C@H]4CC[C@@H](C3)N4S(=O)(=O)CC3CCN(CCCC(F)(F)F)CC3)c(Cl)cc2N1 [Cpd. No. 595, 6-chloro-2-oxo-N-((1S,3r,5R)-8-((1-(4,4,4-trifluorobutyl)piperidin-4-yl)methylsulfonyl)-8-aza-bicyclo[3.2.1]octan-3-yl)indoline-5-carboxamide] | – | 3.54 | 36.1
4 | – | O=C(N[C@H]1C[C@H]2CC[C@@H](C1)N2S(=O)(=O)CC1CCNCC1)c1ccc2[nH]c(=O)oc2c1 [Cpd. No. 601, 2-oxo-N-((1R,3r,5SR)-8-(piperidin-4-ylmethylsulfonyl)-8-aza-bicyclo[3.2.1]octan-3-yl)-2,3-dihydrobenzo[d]oxazole-6-carboxamide Hydrochloride] | – | 5.21 | 4540
5 | – | CCc1cc(C(=O)N[C@H]2C[C@H]3CC[C@@H](C2)N3S(=O)(=O)N2CCC(N)CC2)ns1 [Cpd. No. 610, N-[(1R,3r,5S)-8-(4-aminopiperidine-1-sulfonyl)-8-azabicyclo[3.2.1]octan-3-yl]-5-ethyl-1,2-thiazole-3-carboxamide Hydrochloride] | – | 23.8 | 216
6 | – | NC1CCC(S(=O)(=O)N2[C@@H]3CC[C@H]2C[C@@H](NC(=O)c2ccc4c(c2)OC(F)(F)O4)C3)CC1 (stereo partly drawn) [Cpd. No. 622, N-((1R,3r,5S)-8-(4-aminocyclohexylsulfonyl)-8-aza-bicyclo[3.2.1]octan-3-yl)-2,2-difluorobenzo[d][1,3]dioxole-5-carboxamide Trifluoroacetate] | – | 131 | 1080
7 | – | C[C@H]1Oc2ccc(C(=O)N[C@H]3C[C@H]4CC[C@@H](C3)N4S(=O)(=O)CC3CCNCC3)cc2NC1=O [Cpd. No. 625, (2R)-2-methyl-3-oxo-N-[(1R,3r,5S)-8-[(piperidin-4-ylmethane)sulfonyl]-8-azabicyclo[3.2.1]octan-3-yl]-3,4-dihydro-2H-1,4-benzoxazine-6-carboxamide Hydrochloride] | – | 185 | ≥ 10000
8 | > 40000 | C[C@@H](N)CC(=O)N[C@H]1CC[C@H](NC(=O)c2ccc3c(c2)CC(=O)N3)CC1 [compound 453, N-((1r,4r)-4-((R)-3-aminobutanamido)cyclohexyl)-2-oxoindoline-5-carboxamide] | 260 | – | –
9 | > 40000 | NCCC(=O)N[C@H]1CC[C@H](NC(=O)c2cc3c(cc2Cl)NC(=O)C3)CC1 [compound 491, N-((1r,4r)-4-(3-aminopropanamido)cyclohexyl)-6-chloro-2-oxoindoline-5-carboxamide] | 150 | – | –
10 | – | N[C@H]1CC[C@H](S(=O)(=O)N2[C@@H]3CC[C@H]2C[C@@H](NC(=O)c2ccc4c(c2)CC(=O)N4)C3)CC1 [compound 575, N-((1R,3R,5S)-8-(((1r,4R)-4-aminocyclohexyl)sulfonyl)-8-azabicyclo[3.2.1]octan-3-yl)-2-oxoindoline-5-carboxamide] | 0.44 | – | 2170
11 | – | NC1CCN(S(=O)(=O)N2[C@@H]3CC[C@H]2C[C@@H](NC(=O)c2cc4c(cc2F)NC(=O)C4)C3)CC1 [compound 576, N-((1R,3r,5S)-8-((4-aminopiperidin-1-yl)sulfonyl)-8-azabicyclo[3.2.1]octan-3-yl)-6-fluoro-2-oxoindoline-5-carboxamide] | – | 0.49 | 525
12 | – | CN1CCC(CS(=O)(=O)N2[C@@H]3CC[C@H]2C[C@@H](NC(=O)c2ccc4c(c2)CC(=O)N4)C3)CC1 [compound 577, N-((1R,3r,5S)-8-(((1-methylpiperidin-4-yl)methyl)sulfonyl)-8-azabicyclo[3.2.1]octan-3-yl)-2-oxoindoline-5-carboxamide] | 0.67 | – | 481
13 | – | NC1CCN(S(=O)(=O)N2[C@@H]3CC[C@H]2C[C@@H](NC(=O)c2ccc4c(c2)CC(=O)N4)C3)CC1 [compound 578, N-((1R,3r,5S)-8-((4-aminopiperidin-1-yl)sulfonyl)-8-azabicyclo[3.2.1]octan-3-yl)-2-oxoindoline-5-carboxamide] | 0.68 | – | 854
14 | – | NC1CCN(S(=O)(=O)N2[C@@H]3CC[C@H]2C[C@@H](NC(=O)c2cc4c(cc2Cl)NC(=O)C4)C3)CC1 [compound 579, N-((1R,3r,5S)-8-((4-aminopiperidin-1-yl)sulfonyl)-8-azabicyclo[3.2.1]octan-3-yl)-6-chloro-2-oxoindoline-5-carboxamide] | – | 0.81 | 1130
15 | – | C[C@H]1C[C@@H](NC(=O)c2ccc3c(c2)CC(=O)N3)CCN1S(=O)(=O)N1CCC(N)CC1 [compound 580, N-((2S,4S)-1-((4-aminopiperidin-1-yl)sulfonyl)-2-methylpiperidin-4-yl)-2-oxoindoline-5-carboxamide] | – | 0.9 | 1640
16 | – | O=C1Cc2cc(C(=O)N[C@H]3C[C@H]4CC[C@@H](C3)N4S(=O)(=O)CC3CCN(CCCO)CC3)ccc2N1 [compound 581, N-((1R,3r,5S)-8-(((1-(3-hydroxypropyl)piperidin-4-yl)methyl)sulfonyl)-8-azabicyclo[3.2.1]octan-3-yl)-2-oxoindoline-5-carboxamide] | – | 0.95 | 1670
17 | – | C[C@H]1C[C@@H](NC(=O)c2cc3c(cc2Cl)NC(=O)C3)CCN1S(=O)(=O)N1CCC(N)CC1 [compound 582, N-((2S,4S)-1-((4-aminopiperidin-1-yl)sulfonyl)-2-methylpiperidin-4-yl)-6-chloro-2-oxoindoline-5-carboxamide] | – | 0.98 | 814
18 | – | N[C@H]1CC[C@H](S(=O)(=O)N2[C@@H]3CC[C@H]2C[C@@H](NC(=O)c2cc4c(cc2Cl)NC(=O)C4)C3)CC1 [compound 583, N-((1R,3R,5S)-8-(((1r,4R)-4-aminocyclohexyl)sulfonyl)-8-azabicyclo[3.2.1]octan-3-yl)-6-chloro-2-oxoindoline-5-carboxamide] | – | 1.1 | 1510
19 | – | C[C@H]1CC(NC(=O)c2ccc3c(c2)CC(=O)N3)CCN1S(=O)(=O)c1ccc(C(C)(C)N)cc1 (stereo partly drawn) [compound 584, N-((2S)-1-((4-(2-aminopropan-2-yl)phenyl)sulfonyl)-2-methylpiperidin-4-yl)-2-oxoindoline-5-carboxamide] | – | 1.47 | 653
20 | – | C[C@H]1CC(NC(=O)c2cc3c(cc2Cl)NC(=O)C3)CCN1C(=O)[C@H]1CC[C@H](N)CC1 (stereo partly drawn) [compound 640, N-((2S)-1-((1r,4S)-4-aminocyclohexane-1-carbonyl)-2-methylpiperidin-4-yl)-6-chloro-2-oxoindoline-5-carboxamide] | – | – | ≥ 10000
